Measurements reported in patent publication US20150051269A1, “Drug Delivery Conjugate Capable of Controlled Release, and Use Thereof” (POSTECH ACADEMY-INDUSTRY FOUNDATION, priority 2012, published 2015).

Experiments:
[1] = Size of drug delivery conjugates in aqueous solution (Zetasizer Nano S); type: physicochemical; settings: diameter in aqueous solution
Protocol: (§1) To measure the sizes and surface charges of the drug delivery conjugates prepared by the method of Example 1, the surface charges and sizes of the drug delivery conjugates in an aqueous solution were measured using a surface charge measurement system (Zetasizer Nano Z) and a size measurement system (Zetasizer Nano S).

[2] = Surface charge in aqueous solution (Zetasizer Nano Z); type: physicochemical
Protocol: as §1

Size (d, nm) [1]: 806.4 ± 235.9 nm
Zeta potential (mV) [2]: −39.2 ± 1.50 mV
Compound: CC(=O)O[C@H]1C(=O)[C@@]2(C)[C@H]([C@H](OC(=O)c3ccccc3)[C@]3(O)C[C@H](OC(=O)[C@H](O)[C@@H](NC(=O)c4ccccc4)c4ccccc4)C(C)=C1C3(C)C)[C@]1(OC(C)=O)CO[C@@H]1C[C@@H]2O [PTX, paclitaxel]
